Measurements as given in US20200405659A1, “COMPOSITION CONTAINING 2,3-BUTANEDIOL AS ACTIVE INGREDIENT” (GS CALTEX CORPORATION, priority 2018, published 2020).

Experiments:
[1] = DPPH free radical elimination activity (anti-oxidation ratio); conditions: for change of anti-oxidation ratio with the increase of the concentration: from 0.1 wt % to 1 wt %
Description: To evaluate the anti-oxidative effects of 2,3-butanediol, the elimination activity of free radicals was measured using a 2,2-diphenyl-1-picrylhydrazyl (DPPH) analysis method. Particularly, an anti-oxidation ratio was calculated by Equation 2 below.
Anti-oxidation ratio (%)=[[(absorbance of specimen treated group−absorbance of specimen untreated group)/(absorbance of negative control group−absorbance of specimen untreated group)]×100 [Equation 2]
i) specimen untreated group: group allowing reaction of ultrapure water and methanol
ii) specimen treated group: group allowing reaction of specimen by each concentration and DPPH
iii) negative control group: group allowing reaction of ultrapure water and DPPH
According to the concentration shown in Table 2 below, diols were diluted with a methanol solvent to prepare specimens, and each specimen was reacted with DPPH, and absorbance was measured, and the anti-oxidation ratios calculated are shown in Table 2 below.

collagenase (MMP-1) = assay: Collagenase (MMP-1) content in CCD-986SK cells (Human MMP-1 ELISA kit); assay type: cell-based; conditions: for Collagenase (MMP-1)(pg/mL) / MMP-1 content relative to untreated control (%): 48 hours; for MMP-1 content relative to untreated control (%): specimen-free = 100.00, decreased percent means collagenase restrained; for restraining effects of collagenase: compared with the Comparative Examples using 1,3-butanediol or 1,3-propanediol
Description: The anti-wrinkle effects of 2,3-butanediol were evaluated as the restraining effects of the decomposition of interstitial collagen, etc., by decreasing skin collagenase (for example, MMP-1).
To evaluate the anti-wrinkle effects of 2,3-butanediol, serum-free mediums composed of 99 mL of Dulbecco's modified eagle medium (Gibco) and 1 mL of Penicillin-streptomycin (Gibco), diluted with 2R,3S-butanediol, 2R,3R-butanediol, 1,3-butanediol and 1,3-propanediol in the concentrations shown in Table 3 below, were prepared.
In addition, cells CCD-986SK (ACTT CRL-6323™) were seeded in well plates by 1 mL with 5×10^4, and cultivated at 37° C. in a 5% CO2 cultivator for 24 hours. The cultivated cells were replaced with the mediums of the Examples and Comparative Examples and cultivated at 37° C. in a 5% CO2 cultivator for 48 hours.
A cell dissolution material was recovered, the protein content was measured using BSA protein assay reagent kit (Thermo scientific PIERCE, USA), the collagenase (MMP-1) content was measured suing Human MMP-1 ELISA kit (Sigma), and the results are shown in Table 4 below.
That is, the decreased percent calculated means that collagenase is effectively restrained.

Compound | Anti-oxidation ratio (%) ([1]; 0.1 wt % in methanol) | Anti-oxidation ratio (%) ([1]; 0.5 wt % in methanol) | change of anti-oxidation ratio with the increase of the concentration [1] | Collagenase (MMP-1)(pg/mL) (collagenase (MMP-1); 0.05 wt % in serum-free medium) | MMP-1 content relative to untreated control (%) (collagenase (MMP-1); 0.05 wt %) | Collagenase (MMP-1)(pg/mL) (collagenase (MMP-1); 0.10 wt % in serum-free medium) | MMP-1 content relative to untreated control (%) (collagenase (MMP-1); 0.10 wt %) | Collagenase (MMP-1)(pg/mL) (collagenase (MMP-1); 0.50 wt % in serum-free medium) | MMP-1 content relative to untreated control (%) (collagenase (MMP-1); 0.50 wt %) | Collagenase (MMP-1)(pg/mL) (collagenase (MMP-1); 1.00 wt % in serum-free medium) | MMP-1 content relative to untreated control (%) (collagenase (MMP-1); 1.00 wt %) | restraining effects of collagenase (collagenase (MMP-1)) | Anti-oxidation ratio (%) ([1]; 1.0 wt % in methanol) | production of collagenase (collagenase (MMP-1); concentration of 1 wt %)
C[C@H](O)[C@@H](C)O [2R,3S-butanediol] | 2.23% | 3.95% | increased | 370.2 pg/mL | 60.78% | 364.7 pg/mL | 59.80% | 324.2 pg/mL | 56.69% | 321.4 pg/mL | 62.63% | markedly increased |  | 
CC(O)CCO (stereo not shown) [1,3-butanediol] | 2.89% | 1.46% | rather decreased |  |  |  |  | 569.1 pg/mL | 90.82% |  |  |  | 1.00% | 
C[C@@H](O)[C@@H](C)O [2R,3R-butanediol] |  |  |  | 390.9 pg/mL | 56.16% | 443.0 pg/mL | 63.45% | 327.7 pg/mL | 50.73% | 159.1 pg/mL | 27.29% | markedly increased |  | markedly reduced
OCCCO [1,3-propanediol] | 5.34% | 2.17% | rather decreased |  |  |  |  | 602.9 pg/mL | 94.23% |  |  |  | −1.23% | 
